In patent US20110144056A1, “PYRAZOLE DERIVATIVES USEFUL AS INHIBITORS OF FAAH” (priority 2008, published 2011):

Key:
FAAH [1] = biological target: T1, FAAH (Homo sapiens, UniProt O00519); assay: FAAH enzyme assay, lysate of CHO cells expressing human FAAH; format: biochemical; settings: CHO cell lysate, read-out: Human Lysate
T1 construct: The full length FAAH was subcloned into the mammalian expression vector, pcDEF.neo; expressed in transfected cells; cDNA from Origene
T1 sequence (O00519 1-579): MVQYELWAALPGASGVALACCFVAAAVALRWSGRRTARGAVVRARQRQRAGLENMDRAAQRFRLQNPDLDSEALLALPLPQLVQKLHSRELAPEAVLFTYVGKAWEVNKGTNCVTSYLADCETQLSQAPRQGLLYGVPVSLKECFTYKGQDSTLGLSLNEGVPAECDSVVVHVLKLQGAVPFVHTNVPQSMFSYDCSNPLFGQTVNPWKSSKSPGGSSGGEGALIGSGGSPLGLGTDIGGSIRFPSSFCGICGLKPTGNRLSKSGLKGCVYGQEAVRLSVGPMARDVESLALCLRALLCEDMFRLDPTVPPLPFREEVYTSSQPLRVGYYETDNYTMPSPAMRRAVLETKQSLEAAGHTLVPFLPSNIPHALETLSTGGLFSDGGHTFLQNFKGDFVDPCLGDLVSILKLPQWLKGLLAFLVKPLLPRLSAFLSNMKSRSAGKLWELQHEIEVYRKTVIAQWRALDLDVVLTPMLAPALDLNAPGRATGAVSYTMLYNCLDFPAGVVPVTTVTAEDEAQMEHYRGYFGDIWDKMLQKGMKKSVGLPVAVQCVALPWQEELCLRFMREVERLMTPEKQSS
Excerpt: (§1) To assist in assay development stable cell lines for human, murine and rat full length FAAH were developed. Human FAAH cDNA (Accession No: NM_001441.1) was purchased from Origene (Rockville, Md.). The full length FAAH was subcloned into the mammalian expression vector, pcDEF.neo, using XbaI and […] restriction sites and used for stable cell line generation.
CHO cells expressing FAAH were used to prepare either crude cell lysate or microsome fractions. To harvest cells, tissue culture media was decanted, the monolayer washed three times with Ca^++Mg^++ free PBS and cells recovered after 15 min in enzyme free dissociation media (Millipore Corp, Billerica, Mass.). Cells were collected by centrifuging at 2000 rpm for 15 min. and the cell pellet re-suspended with 50 mM HEPES (pH 7.4) containing 1 mM EDTA and the protease inhibitors aprotinin (1 mg/ml) and leupeptin (100 μM). The suspension was sonicated at 4° C. and the cell lysate recovered after centrifuging at 12,000×g (14,600 rpm, SS34 rotor) for 20 min at 4° C. to form a crude pellet of cell debris, nuclei, peroxisomes, lysosomes, and mitochondria; the supernatant or cell lysate was used for FAAH enzyme assay. In some cases, microsomes fractions enriched in FAAH were prepared by centrifuging the cell lysate further at 27,000 rpm (100,000×g) in SW28 rotor for 50 minutes at 4° C. The pellet containing FAAH-enriched microsomes was re-suspend in 50 mM HEPES, (pH 7.4) 1 mM EDTA, and any remaining DNA sheared by passage of material through a 23 gauge needle and aliquots of enzyme were store at −80° C. prior to use.
(American Radiolabeled Chemicals; 1 mCi/ml) with FAAH (Life Sciences (1995), 56, 1999-2005 and Journal of Pharmacology and Experimented Therapeutics (1997), 283, 729-734), Analytical. Biochemistry (2003), 318, 270-5. In addition, routine assays were performed monitoring hydrolysis of arachidonyl-7-amino-4-methylcoumarin amide (AAMCA) by following increase in fluorescence upon release of 7-amino 4-methyl coumarin (λEX=355 nm, (λEM=460 nm). Analytical. Biochemistry (2005). 343, 143-51.
(§2) Assays are performed on either cell lysate or microsome fractions prepared as described or in whole cell format employing either the fluorescent substrate AAMCA (Cayman chemical, Ann Arbor, Mich.,) or ^3H-anandmaide ([ETHANOLAMINE-1-3H]American Radiolabeled Chemicals; 1 mCi/ml). The cell lysate or microsome assay is performed in Costar black wall, clear bottom plates by adding FAAH_CHO (whole cell, cell lysate or microsome) in assay buffer (50 mM Phosphate, pH 8.0, 1 mM EDTA, 200 mM KCl, 0.2% glycerol, 0.1% fatty acid free BSA) to each well, followed by either DMSO or compound and allowed to incubate at 22-25° C. for fifteen minutes. AAMCA substrate was used to achieve a final concentration of 1 μM and reaction allowed to proceed at room temperature for 1-3 hours. Fluorescent release as a measure of FAAH activity was monitored by reading the plate in a CytoFluor Multiplate Reader ([…]). Whole cell assay is conducted with cells harvested after rinsing tissue culture flasks three times with Ca^++Mg^++ free PBS, incubating for 10 mm in Enzyme free dissociation media and centrifuging for 5 minutes at 1,000 rpm in table top centrifuge. Cells are resuspended in assay buffer at desired cell number in (4×10^4 cells/assay in 96-well format; 1×10^4 cells/assay in 384-well format) and assayed as described.
Alternatively, assays are performed using anandamide [ethanolamine 1-^3H] (specific activity of 10 Ci/mmol) diluted with cold anandamide to achieve a final assay concentration of 1 μM anandamide (˜50,000 cpm). Enzyme (CHO cell lysate, brain or liver homogenate) is incubated in assay buffer (50 mM Phosphate, pH 8.0, 1 mM EDTA, 200 mM KCl, 0.2% glycerol, 0.1% fatty acid free BSA) with inhibitor at 25° C. for 30 minutes. The reaction was terminated by addition of 2 volumes of chloroform:methanol (1:1) and mixed by vortexing. […]

FAAH [2] = biological target: T2, FAAH (Rattus norvegicus, UniProt P97612); assay: FAAH whole cell assay, CHO cells expressing rat FAAH; format: cell-based
T2 construct: expressed in transfected cells; cDNA by RT-PCR from brain cDNA (BD Biosciences)
T2 sequence (P97612 1-579): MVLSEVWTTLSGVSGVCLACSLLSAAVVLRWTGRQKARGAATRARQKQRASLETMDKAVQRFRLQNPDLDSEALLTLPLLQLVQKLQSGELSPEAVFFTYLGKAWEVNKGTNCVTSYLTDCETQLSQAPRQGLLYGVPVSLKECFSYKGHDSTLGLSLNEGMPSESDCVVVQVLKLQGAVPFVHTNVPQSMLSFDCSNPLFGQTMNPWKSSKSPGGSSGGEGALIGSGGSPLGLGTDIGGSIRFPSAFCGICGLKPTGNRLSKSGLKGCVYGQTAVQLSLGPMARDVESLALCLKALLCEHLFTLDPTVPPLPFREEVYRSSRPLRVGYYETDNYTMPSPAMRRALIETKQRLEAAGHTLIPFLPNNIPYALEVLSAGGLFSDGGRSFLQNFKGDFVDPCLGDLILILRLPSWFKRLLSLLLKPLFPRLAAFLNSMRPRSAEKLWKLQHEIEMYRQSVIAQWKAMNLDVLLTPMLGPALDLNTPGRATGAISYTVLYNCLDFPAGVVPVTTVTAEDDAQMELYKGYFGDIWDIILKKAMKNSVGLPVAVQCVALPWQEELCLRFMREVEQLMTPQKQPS
Excerpt: (§3) Murine (accession number NM_010173) and Rat FAAH (accession number NM_024132) was amplified by reverse transcriptase polymerase chain reaction (RT-PCR) from brain cDNA (BD Biosciences, San Jose, Calif.) using primers 1 and 2 or primers 1 and 3 respectively (see Table). The resulting PCR product was ligated into pCR4TOPO and DNA sequence confirmed. The full length murine FAAH was subcloned into the mammalian expression vector, pcDEFneo using either EcoRI (murine) or KpnI and EcoRI (rat) restriction sites. Chinese hamster ovary cells (CHO) were transfected following manufacturers protocol (AMAXA). Forty eight hours post transfection, cells were trypsinized and transferred to 96 well plates in Iscove's DMEM media supplemented with 2 mM Glutamine, 10% fetal calf serum, 1 mg/ml geneticin and HT Supplement (0.1 mM sodium hypoxanthine, 0.016 mM thymidine) in order to isolate single clones. Following selection in geneticin, individual clones were selected and FAAH activity was assessed using a whole cell fluorescent anandamide assay, modified from Ramarao et al (2005). Following removal of tissue culture media cells were dislodged following addition of Cellstripper (Mediatech, Inc. Manassas, Va.) and transferred to 96 well black clear bottom assay plate, centrifuged at 1,000 rpm for 3 mins and media removed and replaced with assay buffer (50 mM Tris pH8.0, 1 mM EDTA, 0.1% fatty acid free BSA). The reaction was initiated by addition of fluorescent substrate, AMC Arachidonoyl Amide (Cayman Chemical, Ann Arbor, Mich.) to 1 μM and reaction allowed to proceed for 2 hours at room temperature. Release of fluorescence was monitored in a CytoFluor Multiplate Reader. Cells expressing the highest amount of FAAH activity were selected for study with FAAH inhibitors.
as §2

FAAH [3] = biological target: T1, FAAH; assay: FAAH whole cell assay, CHO cells expressing human FAAH; format: cell-based; settings: read-out: Human whole cell
Excerpt: as §1, §3, §2

CS(=O)(=O)c1ccc(-c2nn(-c3ccncc3)cc2Sc2ccc(Cl)cc2)cc1 [Ex 5]
IC50 (FAAH [1]): 28 nM
IC50 (FAAH [2]): 16 nM
IC50 (FAAH [3]): 48 nM

CS(=O)(=O)c1ccc(-c2nn(C3CCCC3)cc2Sc2ccc(Cl)cc2)cc1 [Ex 23]
IC50 (FAAH [1]): 143 nM
IC50 (FAAH [2]): 86 nM
IC50 (FAAH [3]): 141 nM

[O-][n+]1cccc(-n2cc(Sc3ccc(Cl)cc3)c(-c3ccc(-c4ncon4)cc3)n2)c1 [Example 75]
IC50 (FAAH [1]): 101 nM
IC50 (FAAH [2]): 137 nM
IC50 (FAAH [3]): 590 nM

CS(=O)(=O)c1ccc(-c2nn(-c3ccc(F)cc3)cc2Sc2ccc(Cl)cc2)cc1 [Ex 1]
IC50 (FAAH [1]): 16 nM
IC50 (FAAH [2]): 18 nM
IC50 (FAAH [3]): 36 nM

Clc1ccc(Sc2cn(-c3ccccc3)nc2-c2ccc(-c3c[nH]nn3)cc2)cc1 [Example 88, 4-(4-{4-[(4-Chlorophenyl)thio]-1-phenyl-1H-pyrazol-3-yl}phenyl)-1H-1,2,3-triazole]
IC50 (FAAH [1]): 121 nM
IC50 (FAAH [2]): 157 nM
IC50 (FAAH [3]): 395 nM

CS(=O)(=O)c1ccc(-c2c(Sc3ccc(Cl)cc3)cnn2-c2ccc(F)cc2)cc1 [Ex 25, 4-[(4-Chlorophenyl)thio]-2-(4-fluorophenyl)-3-[4-(methylsulfonyl)phenyl]-1H-pyrazole]
IC50 (FAAH [1]): 271 nM
IC50 (FAAH [2]): 294 nM
IC50 (FAAH [3]): 235 nM
